Source: patent US20060178374A1, “Aminoheteroaryl compounds as protein kinase inhibitors” (AGOURON PHARMACEUTICALS, INC., priority 2004, published 2006)
pKi: −log10 of the molar value.

Molecular target: HGFR (c-Met) (Homo sapiens, UniProt P08581)
Test: HGFR Continuous-Coupled Spectrophotometric Assay
Format: biochemical
Details: HGFR enzyme 50 nM, Met-2 peptide substrate, 37° C.
How it was run: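 Human HGFR (50 nM final) phosphorylates the Met-2 activation-loop peptide, with ADP formation coupled through PK/LDH to NADH consumption, read as the A340 decrease over 10 min at 37 °C. Buffer was HEPES pH 7.5 with MgCl2, DTT, PEP and ATP.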

Chain of HGFR (c-Met) (P08581 974-1390): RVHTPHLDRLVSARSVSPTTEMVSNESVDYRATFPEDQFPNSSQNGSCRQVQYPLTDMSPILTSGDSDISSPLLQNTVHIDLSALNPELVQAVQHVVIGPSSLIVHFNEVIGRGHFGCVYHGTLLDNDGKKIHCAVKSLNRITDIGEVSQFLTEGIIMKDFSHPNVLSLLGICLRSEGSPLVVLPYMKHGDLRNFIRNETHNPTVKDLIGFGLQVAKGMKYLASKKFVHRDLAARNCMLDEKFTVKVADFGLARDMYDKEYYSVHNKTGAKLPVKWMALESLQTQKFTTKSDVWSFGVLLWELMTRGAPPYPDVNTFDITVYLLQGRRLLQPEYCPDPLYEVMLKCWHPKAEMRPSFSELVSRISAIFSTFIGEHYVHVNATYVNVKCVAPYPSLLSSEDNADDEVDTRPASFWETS

| SMILES | pKi |
| --- | --- |
| CC(Oc1cc(-c2cnc(N3CCNCC3)nc2)cnc1N)c1c(Cl)ccc(F)c1Cl (stereo not drawn) [Example 121, 3-[1-(2,6-dichloro-3-fluorophenyl)ethoxy]-5-(2-piperazin-1-ylpyrimidin-5-yl)pyridin-2-amine] | 7.28 |
| CC(Oc1cc(-c2ccc(C(=O)N(C)CCCN(C)C)cc2)cnc1N)c1c(Cl)ccc(F)c1Cl (stereo not drawn) [Example 122, 4-{6-amino-5-[1-(2,6-dichloro-3-fluorophenyl)ethoxy]pyridin-3-yl}-[3-(dimethylamino)propyl]-N-methylbenzamide] | 7.60 |
| CNCCN(C)C(=O)c1ccc(-c2cnc(N)c(OC(C)c3c(Cl)ccc(F)c3Cl)c2)cc1 (stereo not drawn) [Example 123, 4-{6-amino-5-[1-(2,6-dichloro-3-fluorophenyl)ethoxy]pyridin-3-yl}-N-methyl-N-[2-(methylamino)ethyl]benzamide] | 7.22 |
| CC(Oc1cc(-c2ccc(NCC3(O)CCNCC3)nc2)cnc1N)c1c(Cl)ccc(F)c1Cl (stereo not drawn) [Example 124, 4-[({6′-amino-5′-[1-(2,6-dichloro-3-fluorophenyl)ethoxy]-3,3′-bipyridin-6-yl}amino)methyl]piperidin-4-ol] | 7.70 |
| CC(Oc1cc(-c2ccc(C3CCNCC3)cc2)cnc1N)c1c(Cl)ccc(F)c1Cl (stereo not drawn) [Example 125, 3-[1-(2,6-dichloro-3-fluorophenyl)ethoxy]-5-(4-piperidin-4-ylphenyl)pyridin-2-amine] | 7.60 |
| C[C@@H](Oc1cc(-c2ccc(C(=O)N(C)CCN(C)C)cc2)cnc1N)c1c(Cl)ccc(F)c1Cl [Example 126, 4-{6-amino-5-[(1 R)-1-(2,6-dichloro-3-fluorophenyl)ethoxy]pyridin-3-yl}-N-[2-(dimethylamino)ethyl]-N-methylbenzamide] | 8.00 |
| C[C@@H](Oc1cc(-c2ccc(CO)cc2)cnc1N)c1c(Cl)ccc(F)c1Cl [Example 127, (4-{6-amino-5-[(1R)-1-(2,6-dichloro-3-fluorophenyl)ethoxy]pyridin-3-yl}phenyl)methanol] | 7.29 |
| C[C@@H](Oc1cc(-c2ccc(C(=O)N(C)CCCN(C)C)cc2)cnc1N)c1c(Cl)ccc(F)c1Cl [Example 128, 4-{6-amino-5-[(1 R^15)-1-(2,6-dichloro-3-fluorophenyl)ethoxy]pyridin-3-yl}-N-[3-(dimethylamino)propyl]-N-methylbenzamide] | 8.00 |
| C[C@@H](Oc1cc(-c2ccc(C(=O)N3CCN(C(=O)OC(C)(C)C)CC3)cc2)cnc1N)c1c(Cl)ccc(F)c1Cl [Example 129, tert-butyl 4-(4-{6-amino-5-[(1 R)-1-(2,6-dichloro-3-fluorophenyl)ethoxy]pyridin-3-yl}benzoyl)piperazine-1-carboxylate] | 7.52 |
| CC(Oc1cc(-c2ccc(CO)cc2)cnc1N)c1c(Cl)ccc(F)c1Cl (stereo not drawn) [Example 130, (4-{6-amino-5-[1-(2,6-dichloro-3-fluorophenyl)ethoxy]pyridin-3-yl}phenyl)methanol] | 7.15 |
| COc1ccc(-c2cnc(N)c(OC(C)c3c(Cl)ccc(F)c3Cl)c2)cc1 (stereo not drawn) [Example 131, 3-[1-(2,6-dichloro-3-fluorophenyl)ethoxy]-5-(4-methoxyphenyl)pyridin-2-amine] | 6.88 |
| CC(Oc1cc(-c2cccc(CN)c2)cnc1N)c1c(Cl)ccc(F)c1Cl (stereo not drawn) [Example 132, 5-[3-(aminomethyl)phenyl]-3-[1-(2,6-dichloro-3-fluorophenyl)ethoxy]pyridin-2-amine] | 7.16 |
| CC(Oc1cc(-c2cccc(CC#N)c2)cnc1N)c1c(Cl)ccc(F)c1Cl (stereo not drawn) [Example 133, (3-{6-amino-5-[1-(2,6-dichloro-3-fluorophenyl)ethoxy]pyridin-3-yl}phenyl)acetonitrile] | 7.39 |
| CC(Oc1cc(-c2ccc(CC#N)cc2)cnc1N)c1c(Cl)ccc(F)c1Cl (stereo not drawn) [Example 134, (4-{6-amino-5-[1-(2,6-dichloro-3-fluorophenyl)ethoxy]pyridin-3-yl}phenyl)acetonitrile] | 7.04 |
| CC(Oc1cc(-c2ccc(C(=O)N(C)C)cc2)cnc1N)c1c(Cl)ccc(F)c1Cl (stereo not drawn) [Example 135, 4-{6-amino-5-[1-(2,6-dichloro-3-fluorophenyl)ethoxy]pyridin-3-yl}-N,N-dimethylbenzamide] | 7.43 |
| CC(Oc1cc(-c2ccc(O)cc2)cnc1N)c1c(Cl)ccc(F)c1Cl (stereo not drawn) [Example 136, 4-{6-amino-5-[1-(2,6-dichloro-3-fluorophenyl)ethoxy]pyridin-3-yl}phenol] | 7.14 |
| CC(Oc1cc(-c2ccc(NS(C)(=O)=O)cc2)cnc1N)c1c(Cl)ccc(F)c1Cl (stereo not drawn) [Example 138, N-(4-{6-amino-5-[1-(2,6-dichloro-3-fluorophenyl)ethoxy]pyridin-3-yl}phenyl) methanesulfonamide] | 7.49 |

| SMILES | pKi |
| --- | --- |
| CCS(=O)(=O)c1ccc(-c2cnc(N)c(OC(C)c3c(Cl)ccc(F)c3Cl)c2)cc1 (stereo not drawn) [Example 139, 3-[1-(2,6-dichloro-3-fluorophenyl)ethoxy]-5-(4-(ethylsulfonyl)phenyl]pyridin-2-amine] | 7.28 |
| COc1cc(-c2cnc(N)c(OC(C)c3c(Cl)ccc(F)c3Cl)c2)ccc1O (stereo not drawn) [Example 140, 4-{6-amino-5-[1-(2,6-dichloro-3-fluorophenyl)ethoxy]pyridin-3-yl}-2-methoxyphenol] | 7.41 |
| CC(Oc1cc(-c2cccc(NS(C)(=O)=O)c2)cnc1N)c1c(Cl)ccc(F)c1Cl (stereo not drawn) [Example 141, N-(3-{6-amino-5-[1-(2,6-dichloro-3-fluorophenyl)ethoxy]pyridin-3-yl}phenyl) methanesulfonamide] | 7.27 |
| CC(Oc1cc(-c2cccc(C(=O)N(C)C)c2)cnc1N)c1c(Cl)ccc(F)c1Cl (stereo not drawn) [Example 142] | 7.23 |
| CC(Oc1cc(-c2ccc3[nH]cc(CN(C)C)c3c2)cnc1N)c1c(Cl)ccc(F)c1Cl (stereo not drawn) [Example 143, 3-[1-(2,6-dichloro-3-fluorophenyl)ethoxy]-5-{3-[(dimethylamino)methyl]-1H-indol-5-yl}pyridin-2-amine] | 7.14 |
| CC(Oc1cc(-c2ccc(C[C@H](N)C(=O)O)cc2)cnc1N)c1c(Cl)ccc(F)c1Cl (stereo partly drawn) [Example 144, 4-{6-amino-5-[1-(2,6-dichloro-3-fluorophenyl)ethoxy]pyridin-3-yl}phenylalanine] | 7.10 |
| CC(Oc1cc(-c2ccc(CO)nc2)cnc1N)c1c(Cl)ccc(F)c1Cl (stereo not drawn) [Example 145, {6′-amino-5′-[1-(2,6-dichloro-3-fluorophenyl)ethoxy]-3,3′-bipyridin-6-yl}methanol] | 7.16 |
| CC(Oc1cc(-c2ccc(CO)cn2)cnc1N)c1c(Cl)ccc(F)c1Cl (stereo not drawn) [Example 146, {6′-amino-5′-[1-(2,6-dichloro-3-fluorophenyl)ethoxy]-2,3′-bipyridin-5-yl}methanol] | 6.18 |
| CC(=O)c1ccc(-c2cnc(N)c(OC(C)c3c(Cl)ccc(F)c3Cl)c2)cc1 (stereo not drawn) [Example 147, 1-(4-{6-amino-5-[1-(2,6-dichloro-3-fluorophenyl)ethoxy]pyridin-3-yl}phenyl) ethanone] | 7.14 |
| CC(Oc1cc(-c2ccc3c(ccn3C)c2)cnc1N)c1c(Cl)ccc(F)c1Cl (stereo not drawn) [Example 148, 3-[1-(2,6-dichloro-3-fluorophenyl)ethoxy]-5-(1-methyl-1H-indol-5-yl)pyridin-2-amine] | 6.82 |
| COc1ccc(-c2cnc(N)c(OC(C)c3c(Cl)ccc(F)c3Cl)c2)cc1CC#N (stereo not drawn) [Example 149, (5-{6-amino-5-[1-(2,6-dichloro-3-fluorophenyl)ethoxy]pyridin-3-yl}-2-methoxyphenyl) acetonitrile] | 6.43 |
| CC(O)c1cccc(-c2cnc(N)c(OC(C)c3c(Cl)ccc(F)c3Cl)c2)c1 (stereo not drawn) [Example 150, 1-(3-{6-amino-5-[1-(2,6-dichloro-3-fluorophenyl)ethoxy]pyridin-3-yl}phenyl)ethanol] | 6.70 |
| CC(Oc1cc(-c2ccc(C3(C#N)CCNCC3)cc2)cnc1N)c1c(Cl)ccc(F)c1Cl (stereo not drawn) [Example 152, 4-(4-{6-amino-5-[1-(2,6-dichloro-3-fluorophenyl)ethoxy]pyridin-3-yl}phenyl) piperidine-4-carbonitrile] | 7.92 |
| CC(Oc1cc(-c2cccc(C3(C#N)CCNCC3)c2)cnc1N)c1c(Cl)ccc(F)c1Cl (stereo not drawn) [Example 153, 4-(3-{6-amino-5-[1-(2,6-dichloro-3-fluorophenyl)ethoxy]pyridin-3-yl}phenyl) piperidine-4-carbonitrile] | 8.22 |
| CC(=O)N1CCC(C#N)(c2cccc(-c3cnc(N)c(OC(C)c4c(Cl)ccc(F)c4Cl)c3)c2)CC1 (stereo not drawn) [Example 154, 1-acetyl-4-(3-{6-amino-5-[1-(2,6-dichloro-3-fluorophenyl)ethoxy]pyridin-3-yl}phenyl) piperidine-4-carbonitrile] | 7.66 |
| CC(Oc1cc(-c2ccc3nc(C(=O)N(C)C)cn3c2)cnc1N)c1c(Cl)ccc(F)c1Cl (stereo not drawn) [Example 155, 6-{6-amino-5-[1-(2,6-dichloro-3-fluorophenyl)ethoxy]pyridin-3-yl}-N,N-dimethylimidazo[1,2-a]pyridine-2-carboxamide] | 7.40 |
